Assay results as given in US6472348B1, “Pyridone derivatives and herbicides” (Kumiai Chemical Industry Co., Ltd., priority 1996, dated 2002).

Columns and labels:
barnyardgrass (Ec) [1] = test: Test Example 1: herbicidal effects by paddy field soil treatment; type: in vivo; details: 100 g of the active ingredient per 10 ares, 21st day after the application, index 0-5 of Table 47;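 further: grade of growth control; 5 = at least 90%; 4 = 70 to 90%; 3 = 50 to 70%; 2 = 30 to 50%; 1 = 10 to 30%; 0 = under 10%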
How it was run: (§1)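 Herbicidal effect was scored against a graded standard 21 days after treatment. Seeds were sown in puddled, leveled paddy soil flooded to 3 cm depth, and the active ingredient was applied at 100 g per 10 ares before greenhouse culture.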

bulrush (Sc) = test: as above; type: in vivo; details: 100 g of the active ingredient per 10 ares, 21st day after the application, index 0-5 of Table 47;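 further: grade of growth control; 5 = at least 90%; 4 = 70 to 90%; 3 = 50 to 70%; 2 = 30 to 50%; 1 = 10 to 30%; 0 = under 10%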
How it was run: as §1

monochoria (Mo) = test: as above; type: in vivo; details: 100 g of the active ingredient per 10 ares, 21st day after the application, index 0-5 of Table 47;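 further: grade of growth control; 5 = at least 90%; 4 = 70 to 90%; 3 = 50 to 70%; 2 = 30 to 50%; 1 = 10 to 30%; 0 = under 10%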
How it was run: as §1

Digitaria ciliaris (Di) = test: Test Example 2: herbicidal effects by upland field soil treatment; type: in vivo; details: 100 g of the active ingredient per 10 ares, evaluated on the 21st day after application;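 further: grade of growth control; 5 = at least 90%; 4 = 70 to 90%; 3 = 50 to 70%; 2 = 30 to 50%; 1 = 10 to 30%; 0 = under 10%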
Description: (§2) (Test on Herbicidal Effects by Upland Field Soil Treatment)

barnyardgrass (Ec) [2] = test: as above; type: in vivo; details: 100 g of the active ingredient per 10 ares, evaluated on the 21st day after application
Description: as §2

[3] = system: common lambsquarters (Ch); test: as above; type: in vivo; details: 100 g of the active ingredient per 10 ares, evaluated on the 21st day after application
Description: as §2

pale smartweed (Po) [4] = test: as above; type: in vivo; details: 100 g of the active ingredient per 10 ares, evaluated on the 21st day after application
Description: as §2

rice flatsedge (Ci) [5] = test: as above; type: in vivo; details: 100 g of the active ingredient per 10 ares, evaluated on the 21st day after application
Description: as §2

slender amaranth (Am) [6] = test: as above; type: in vivo; details: 100 g of the active ingredient per 10 ares, evaluated on the 21st day after application
Description: as §2

Diaitaria ciliaris (Di) = test: Test Example 3: herbicidal effects by upland field foliage treatment; type: in vivo; set-up: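 grade of growth control; 5 = at least 90%; 4 = 70 to 90%; 3 = 50 to 70%; 2 = 30 to 50%; 1 = 10 to 30%; 0 = under 10%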; details: 100 g active ingredient per 10 ares, evaluated 14th day after treatment
How it was run: (§3)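 Using plants cultured for 2 weeks in a greenhouse from seed sown in soil-covered sand (pots 120 cm^2), the compounds were applied to foliage, and weed control was graded by standard criteria 14 days thereafter.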

barnyardgrass (Ec) [7] = test: as above; type: in vivo; set-up: scale not given here; details: 100 g active ingredient per 10 ares, evaluated 14th day after treatment
How it was run: as §3

[8] = system: common lambsquarters (Ch); test: as above; type: in vivo; set-up: scale not given here; details: 100 g active ingredient per 10 ares, evaluated 14th day after treatment
How it was run: as §3

pale smartweed (Po) [9] = test: as above; type: in vivo; set-up: scale not given here; details: 100 g active ingredient per 10 ares, evaluated 14th day after treatment
How it was run: as §3

rice flatsedge (Ci) [10] = test: as above; type: in vivo; set-up: scale not given here; details: 100 g active ingredient per 10 ares, evaluated 14th day after treatment
How it was run: as §3

slender amaranth (Am) [11] = test: as above; type: in vivo; set-up: scale not given here; details: 100 g active ingredient per 10 ares, evaluated 14th day after treatment
How it was run: as §3

corn (Ze) = test: Test Example 11: crop plant selectivity by upland field foliage treatment (corn), phytotoxicity; details: upland field foliage treatment, dose 1.6 g ai/10a, 14th day after treatment
Protocol: (§4) (Test on Crop Plant Selectivity by Upland Field Foliage Treatment)
(§5) In a plastic pot (surface area: 600 cm^2) filled with sand, corn (Ze), pale smartweed (Po), slender amaranth (Am), common lambsquarters (Ch) and China jute (Ab) were sown and cultured in a green house for 2 weeks. […] The plants were then cultured in a green house, and the evaluation of the herbicidal effects and phytotoxicity was conducted on the 14th day after the treatment in accordance with the standards as identified in Table 47.

China jute (Ab) = test: Test Example 11: crop plant selectivity by upland field foliage treatment (corn), herbicidal effects; type: in vivo; set-up: scale not given here; details: upland field foliage treatment (corn test), dose 1.6 g ai/10a, 14th day after treatment
Protocol: as §4, §5

[12] = system: common lambsquarters (Ch); test: as above; type: in vivo; set-up: scale not given here; details: upland field foliage treatment (corn test), dose 1.6 g ai/10a, 14th day after treatment
Protocol: as §4, §5

pale smartweed (Po) [13] = test: as above; type: in vivo; set-up: scale not given here; details: upland field foliage treatment (corn test), dose 1.6 g ai/10a, 14th day after treatment
Protocol: as §4, §5

slender amaranth (Am) [14] = test: as above; type: in vivo; set-up: scale not given here; details: upland field foliage treatment (corn test), dose 1.6 g ai/10a, 14th day after treatment
Protocol: as §4, §5

SMILES: Cn1c(C(F)(F)F)ccc(-c2cc3c(cc2F)OCC(=O)N3CC#N)c1=O [Compound 2-17]
- Herbicidal effects Ec (barnyardgrass (Ec) [1]): 5
- Herbicidal effects Sc (bulrush (Sc)): 5
- Herbicidal effects Mo (monochoria (Mo)): 5
- Herbicidal effects Di (Digitaria ciliaris (Di)): 5
- Herbicidal effects Ec (barnyardgrass (Ec) [2]): 5
- Herbicidal effects Ch [3]: 5
- Herbicidal effects Po (pale smartweed (Po) [4]): 5
- Herbicidal effects Ci (rice flatsedge (Ci) [5]): 5
- Herbicidal effects Am (slender amaranth (Am) [6]): 5
- Herbicidal effects Di (Diaitaria ciliaris (Di)): 5
- Herbicidal effects Ec (barnyardgrass (Ec) [7]): 5
- Herbicidal effects Ch [8]: 5
- Herbicidal effects Po (pale smartweed (Po) [9]): 5
- Herbicidal effects Ci (rice flatsedge (Ci) [10]): 5
- Herbicidal effects Am (slender amaranth (Am) [11]): 5
- Phytotoxicity Ze (corn (Ze)): 2
- Herbicidal effects Ab (China jute (Ab)): 5
- Herbicidal effects Ch [12]: 5
- Herbicidal effects Po (pale smartweed (Po) [13]): 5
- Herbicidal effects Am (slender amaranth (Am) [14]): 5
